In US20160017399A1, “ELECTROCHEMICAL-BASED ANALYTICAL TEST STRIP WITH ENZYMATIC REAGENT LAYER CONTAINING A NAPHTHOQUINONE-BASED MEDIATOR AND FAD-GDH” (LifeScan Scotland Limited, priority 2014, published 2016):
Read-outs that look alike come from different tables or passages of the source.

Assays:
[1] = solubility at room temperature; format: physicochemical
From the text: Compound A is an orange amorphous solid, soluble in base and neutral phosphate buffer at room temperature. Compound A has the following beneficial electrochemical characteristics: • E0=0.086V vs Ag/AgCl (0.1M KCl) • kcat=900 s^−1 where E0 is the formal redox potential vs Ag/AgCl (compare to 0.25V for ferricyanide) and kcat is the rate constant for homogeneous electron transfer between the mediator (i.e., Compound A) and enzyme cofactor FAD. It is noted that E0 for ferricyanide is 0.25V and kcat for ferricyanide is 230 s^−1. Compound A has both an E0 that is beneficially lower than that of ferricyanide (and thus less is less susceptible to interferents) and a kcat that is beneficially higher than that of ferricyanide.
Compound B is an orange amorphous solid, soluble in base and neutral phosphate buffer at room temperature. […] has the following beneficial electrochemical characteristics: • E0=0.016V vs Ag/AgCl (0.1M KCl) • kcat=100 s^−1 where E0 is the formal redox potential vs Ag/AgCl (compare to 0.25V for ferricyanide) and kcat is the rate constant for homogeneous electron transfer between the mediator (i.e., Compound A) and enzyme cofactor FAD. It is noted that E0 for ferricyanide is 0.25V and kcat for ferricyanide is 230 s^−1. […]

[2] = storage stability (glucose sensitivity after storage); format: physicochemical; conditions: storage for 26 days at 40 degrees Celsius

solubility [1] | reduction in glucose sensitivity after storage [2] | solubility ([1]; in base and neutral phosphate buffer at room temperature) | Compound
soluble | no reduction in glucose sensitivity |  | O=C1C=C(SCCCS(=O)(=O)O)c2ccccc2C1=O [Compound A, 1,2-naphthalenedione-4-(3-mercapto-1-propanesulfonic acid)]
 | no reduction in glucose sensitivity | soluble | O=C(O)CCSC1=CC(=O)C(=O)c2ccccc21 [Compound B, 1,2-naphthalenedione-4-(3-mercaptopropionic acid)]
